According to ChEMBL document CHEMBL4507268 (2021):

Assays:
[1] = test system: Phosphatidylinositol 4,5-bisphosphate 3-kinase catalytic subunit alpha isoform (Homo sapiens), P42336 [E542K]; conditions: Compound concentration 1000.0 nM
[2] = test system: SK-BR-3; experiment: Proliferation assay: SK-BR-3 (breast cancer); format: functional, cell-based; conditions: Homo sapiens
[3] = target: T1, cGMP-dependent protein kinase 2 (Homo sapiens) (UniProt Q13237); conditions: Compound concentration 1000.0 nM
T1 sequence (whole entry): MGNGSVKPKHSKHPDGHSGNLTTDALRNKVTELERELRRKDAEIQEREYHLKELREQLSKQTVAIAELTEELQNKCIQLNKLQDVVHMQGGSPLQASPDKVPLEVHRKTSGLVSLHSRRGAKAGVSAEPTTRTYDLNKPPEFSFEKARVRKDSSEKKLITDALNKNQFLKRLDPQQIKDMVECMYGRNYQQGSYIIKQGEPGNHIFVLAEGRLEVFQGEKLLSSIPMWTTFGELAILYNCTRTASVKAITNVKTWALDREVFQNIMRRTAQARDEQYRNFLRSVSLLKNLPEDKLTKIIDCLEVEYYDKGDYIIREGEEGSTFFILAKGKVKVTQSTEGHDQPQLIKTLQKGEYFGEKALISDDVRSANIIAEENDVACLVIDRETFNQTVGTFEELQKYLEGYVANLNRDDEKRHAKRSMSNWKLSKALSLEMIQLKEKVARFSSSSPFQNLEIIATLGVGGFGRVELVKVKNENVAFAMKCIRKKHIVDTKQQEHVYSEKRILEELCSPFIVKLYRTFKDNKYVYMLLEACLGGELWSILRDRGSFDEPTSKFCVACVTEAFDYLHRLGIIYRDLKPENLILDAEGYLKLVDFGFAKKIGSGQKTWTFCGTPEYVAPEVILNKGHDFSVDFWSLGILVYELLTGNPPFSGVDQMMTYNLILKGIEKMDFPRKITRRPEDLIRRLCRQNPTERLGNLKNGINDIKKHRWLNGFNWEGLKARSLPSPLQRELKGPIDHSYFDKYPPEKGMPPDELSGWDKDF

[4] = target: Fibroblast growth factor receptor 4 (Homo sapiens) (UniProt P22455); conditions: Compound concentration 1.0 uM
[5] = target: Eukaryotic elongation factor 2 kinase (Homo sapiens) (UniProt O00418); conditions: Compound concentration 1.0 uM
[6] = target: Calcium/calmodulin-dependent protein kinase type 1G (Homo sapiens) (UniProt Q96NX5); conditions: Compound concentration 1.0 uM
[7] = target: Casein kinase II subunit alpha (Homo sapiens) (UniProt P68400); conditions: Compound concentration 1.0 uM
[8] = target: Mitogen-activated protein kinase 9 (Homo sapiens) (UniProt P45984); conditions: Compound concentration 1.0 uM
[9] = target: T2, Serine/threonine-protein kinase TAO2 (Homo sapiens) (UniProt Q9UL54); conditions: Compound concentration 1.0 uM
T2 sequence (whole entry): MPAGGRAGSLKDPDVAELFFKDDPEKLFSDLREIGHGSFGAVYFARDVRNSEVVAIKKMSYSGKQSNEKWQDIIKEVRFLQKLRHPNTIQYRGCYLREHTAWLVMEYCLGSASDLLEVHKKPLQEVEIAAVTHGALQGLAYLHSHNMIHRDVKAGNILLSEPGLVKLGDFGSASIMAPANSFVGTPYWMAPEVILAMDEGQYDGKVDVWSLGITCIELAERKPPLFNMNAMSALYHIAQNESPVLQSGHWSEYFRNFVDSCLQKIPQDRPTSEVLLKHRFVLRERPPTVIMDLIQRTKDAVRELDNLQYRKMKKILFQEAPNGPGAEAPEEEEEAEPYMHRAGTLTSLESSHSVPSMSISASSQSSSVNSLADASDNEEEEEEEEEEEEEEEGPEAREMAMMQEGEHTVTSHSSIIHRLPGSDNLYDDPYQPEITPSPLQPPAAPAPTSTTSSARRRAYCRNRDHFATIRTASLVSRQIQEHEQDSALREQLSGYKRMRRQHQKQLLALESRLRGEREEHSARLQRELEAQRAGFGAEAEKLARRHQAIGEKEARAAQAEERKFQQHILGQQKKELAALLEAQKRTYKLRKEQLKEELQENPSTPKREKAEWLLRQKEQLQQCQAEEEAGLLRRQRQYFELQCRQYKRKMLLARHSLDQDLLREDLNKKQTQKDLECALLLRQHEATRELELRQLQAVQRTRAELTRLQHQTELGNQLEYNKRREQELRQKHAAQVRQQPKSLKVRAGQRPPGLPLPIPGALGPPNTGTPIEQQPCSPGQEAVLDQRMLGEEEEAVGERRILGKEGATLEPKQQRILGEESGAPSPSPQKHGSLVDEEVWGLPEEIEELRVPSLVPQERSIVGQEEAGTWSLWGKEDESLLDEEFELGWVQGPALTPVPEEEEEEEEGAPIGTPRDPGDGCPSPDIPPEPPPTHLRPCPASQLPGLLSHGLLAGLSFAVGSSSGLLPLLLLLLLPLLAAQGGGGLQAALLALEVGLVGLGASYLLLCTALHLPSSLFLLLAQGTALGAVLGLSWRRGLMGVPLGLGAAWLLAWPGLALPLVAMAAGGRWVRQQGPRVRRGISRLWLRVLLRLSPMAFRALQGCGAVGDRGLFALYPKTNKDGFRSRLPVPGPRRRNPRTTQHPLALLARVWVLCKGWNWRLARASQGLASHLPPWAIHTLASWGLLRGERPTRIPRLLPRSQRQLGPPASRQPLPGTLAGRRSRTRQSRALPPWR

[10] = target: T3, Serine/threonine-protein kinase Sgk3 (Homo sapiens) (UniProt Q96BR1); conditions: Compound concentration 1.0 uM
T3 sequence (whole entry): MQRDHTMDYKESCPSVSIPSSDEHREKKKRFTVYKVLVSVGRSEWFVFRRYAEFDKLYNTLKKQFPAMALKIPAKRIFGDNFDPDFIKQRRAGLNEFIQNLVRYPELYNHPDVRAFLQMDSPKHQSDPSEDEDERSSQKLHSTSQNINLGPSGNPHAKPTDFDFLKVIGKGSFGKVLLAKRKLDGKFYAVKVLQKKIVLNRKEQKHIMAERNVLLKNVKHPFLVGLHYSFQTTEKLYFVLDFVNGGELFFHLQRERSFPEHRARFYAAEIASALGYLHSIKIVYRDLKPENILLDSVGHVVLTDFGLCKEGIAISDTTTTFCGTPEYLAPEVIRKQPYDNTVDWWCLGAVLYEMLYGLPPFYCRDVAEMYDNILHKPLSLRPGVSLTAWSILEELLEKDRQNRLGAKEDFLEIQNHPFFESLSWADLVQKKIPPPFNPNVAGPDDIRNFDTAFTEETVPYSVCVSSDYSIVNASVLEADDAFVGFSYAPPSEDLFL

[11] = target: Proto-oncogene tyrosine-protein kinase receptor Ret (Homo sapiens) (UniProt P07949); conditions: Compound concentration 1.0 uM
[12] = target: Serine/threonine-protein kinase 24 (Homo sapiens) (UniProt Q9Y6E0); conditions: Compound concentration 1.0 uM
Chain of Serine/threonine-protein kinase 24 (Homo sapiens) (Q9Y6E0 whole entry, looked up): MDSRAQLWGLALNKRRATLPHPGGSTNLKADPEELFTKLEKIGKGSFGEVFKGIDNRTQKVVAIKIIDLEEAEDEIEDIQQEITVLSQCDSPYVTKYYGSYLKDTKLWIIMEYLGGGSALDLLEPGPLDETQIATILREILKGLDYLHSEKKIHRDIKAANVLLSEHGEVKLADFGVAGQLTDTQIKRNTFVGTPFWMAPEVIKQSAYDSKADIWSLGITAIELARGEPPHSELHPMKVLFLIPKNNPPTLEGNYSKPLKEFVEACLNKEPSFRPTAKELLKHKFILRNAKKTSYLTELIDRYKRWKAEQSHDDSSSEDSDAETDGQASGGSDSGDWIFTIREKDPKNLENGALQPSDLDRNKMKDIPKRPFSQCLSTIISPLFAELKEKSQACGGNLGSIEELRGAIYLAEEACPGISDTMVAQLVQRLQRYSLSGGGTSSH

Chain of Phosphatidylinositol 4,5-bisphosphate 3-kinase catalytic subunit alpha isoform (Homo sapiens), P42336 [E542K] (P42336 whole entry E542K, canonical isoform): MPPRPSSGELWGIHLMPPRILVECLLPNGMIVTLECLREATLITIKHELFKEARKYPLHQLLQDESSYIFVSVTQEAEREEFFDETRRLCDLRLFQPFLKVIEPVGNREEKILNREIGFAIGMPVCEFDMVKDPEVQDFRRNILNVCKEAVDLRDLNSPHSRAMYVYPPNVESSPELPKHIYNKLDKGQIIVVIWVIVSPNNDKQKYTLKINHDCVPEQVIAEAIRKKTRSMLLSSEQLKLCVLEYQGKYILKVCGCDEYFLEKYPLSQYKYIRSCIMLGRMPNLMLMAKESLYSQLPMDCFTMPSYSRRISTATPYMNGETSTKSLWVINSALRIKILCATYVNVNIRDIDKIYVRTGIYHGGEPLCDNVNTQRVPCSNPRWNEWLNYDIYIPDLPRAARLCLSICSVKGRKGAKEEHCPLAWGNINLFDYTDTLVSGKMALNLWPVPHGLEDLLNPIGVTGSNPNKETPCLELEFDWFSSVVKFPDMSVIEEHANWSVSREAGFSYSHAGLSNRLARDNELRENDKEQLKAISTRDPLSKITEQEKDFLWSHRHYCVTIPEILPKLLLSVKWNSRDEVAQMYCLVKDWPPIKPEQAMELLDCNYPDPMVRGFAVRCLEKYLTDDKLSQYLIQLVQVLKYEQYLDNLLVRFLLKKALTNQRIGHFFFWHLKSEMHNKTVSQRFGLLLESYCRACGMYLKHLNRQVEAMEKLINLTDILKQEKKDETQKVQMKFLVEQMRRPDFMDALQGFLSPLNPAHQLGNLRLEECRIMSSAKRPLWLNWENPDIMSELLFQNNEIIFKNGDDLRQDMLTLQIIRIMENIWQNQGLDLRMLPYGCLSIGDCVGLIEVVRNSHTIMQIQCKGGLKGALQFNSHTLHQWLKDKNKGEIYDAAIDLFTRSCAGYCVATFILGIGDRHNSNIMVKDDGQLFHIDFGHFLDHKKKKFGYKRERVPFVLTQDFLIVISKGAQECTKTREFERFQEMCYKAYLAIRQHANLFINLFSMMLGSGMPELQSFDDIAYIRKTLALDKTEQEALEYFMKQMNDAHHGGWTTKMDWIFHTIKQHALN
Chain of Proto-oncogene tyrosine-protein kinase receptor Ret (Homo sapiens) (P07949 whole entry): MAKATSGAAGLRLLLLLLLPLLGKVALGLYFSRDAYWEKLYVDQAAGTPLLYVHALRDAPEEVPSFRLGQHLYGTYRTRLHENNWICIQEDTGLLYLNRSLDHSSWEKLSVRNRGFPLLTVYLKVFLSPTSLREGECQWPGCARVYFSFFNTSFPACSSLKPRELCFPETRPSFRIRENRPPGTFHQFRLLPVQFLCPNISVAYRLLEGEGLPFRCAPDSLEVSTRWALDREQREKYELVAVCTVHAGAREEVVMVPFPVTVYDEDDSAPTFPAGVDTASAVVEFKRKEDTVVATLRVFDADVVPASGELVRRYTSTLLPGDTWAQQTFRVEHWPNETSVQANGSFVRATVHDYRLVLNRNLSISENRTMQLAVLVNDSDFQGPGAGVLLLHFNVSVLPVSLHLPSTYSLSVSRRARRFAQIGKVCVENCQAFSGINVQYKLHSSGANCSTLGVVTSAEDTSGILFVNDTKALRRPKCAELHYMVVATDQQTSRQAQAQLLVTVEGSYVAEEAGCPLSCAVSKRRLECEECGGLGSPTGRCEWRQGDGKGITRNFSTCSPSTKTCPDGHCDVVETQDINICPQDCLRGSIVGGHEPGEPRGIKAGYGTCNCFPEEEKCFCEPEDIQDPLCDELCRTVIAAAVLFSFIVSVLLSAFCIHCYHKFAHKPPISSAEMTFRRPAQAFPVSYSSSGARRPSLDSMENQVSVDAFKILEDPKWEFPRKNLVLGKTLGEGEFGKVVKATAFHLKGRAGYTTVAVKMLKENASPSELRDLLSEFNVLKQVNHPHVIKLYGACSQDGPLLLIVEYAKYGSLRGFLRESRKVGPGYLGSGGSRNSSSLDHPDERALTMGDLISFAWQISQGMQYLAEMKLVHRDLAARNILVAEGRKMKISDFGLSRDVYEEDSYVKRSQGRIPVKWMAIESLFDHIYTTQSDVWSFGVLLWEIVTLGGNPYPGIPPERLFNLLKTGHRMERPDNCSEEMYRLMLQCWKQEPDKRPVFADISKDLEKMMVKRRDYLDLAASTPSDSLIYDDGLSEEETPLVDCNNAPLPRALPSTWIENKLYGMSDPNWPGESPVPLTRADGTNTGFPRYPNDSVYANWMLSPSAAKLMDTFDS
Chain of Calcium/calmodulin-dependent protein kinase type 1G (Homo sapiens) (Q96NX5 whole entry): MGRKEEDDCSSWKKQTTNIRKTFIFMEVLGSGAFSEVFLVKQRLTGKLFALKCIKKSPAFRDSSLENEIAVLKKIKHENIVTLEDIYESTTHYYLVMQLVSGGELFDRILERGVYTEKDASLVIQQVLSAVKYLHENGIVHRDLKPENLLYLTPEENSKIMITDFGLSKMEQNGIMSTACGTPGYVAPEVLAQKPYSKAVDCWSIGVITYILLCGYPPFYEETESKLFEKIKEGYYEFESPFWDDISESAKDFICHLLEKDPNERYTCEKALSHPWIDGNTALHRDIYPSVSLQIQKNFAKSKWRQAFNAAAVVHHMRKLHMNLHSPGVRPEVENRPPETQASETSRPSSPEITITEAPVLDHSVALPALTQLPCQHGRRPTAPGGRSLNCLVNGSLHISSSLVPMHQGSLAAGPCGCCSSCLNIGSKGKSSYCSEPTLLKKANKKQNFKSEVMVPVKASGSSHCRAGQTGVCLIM
Chain of Fibroblast growth factor receptor 4 (Homo sapiens) (P22455 22-802 limits assumed): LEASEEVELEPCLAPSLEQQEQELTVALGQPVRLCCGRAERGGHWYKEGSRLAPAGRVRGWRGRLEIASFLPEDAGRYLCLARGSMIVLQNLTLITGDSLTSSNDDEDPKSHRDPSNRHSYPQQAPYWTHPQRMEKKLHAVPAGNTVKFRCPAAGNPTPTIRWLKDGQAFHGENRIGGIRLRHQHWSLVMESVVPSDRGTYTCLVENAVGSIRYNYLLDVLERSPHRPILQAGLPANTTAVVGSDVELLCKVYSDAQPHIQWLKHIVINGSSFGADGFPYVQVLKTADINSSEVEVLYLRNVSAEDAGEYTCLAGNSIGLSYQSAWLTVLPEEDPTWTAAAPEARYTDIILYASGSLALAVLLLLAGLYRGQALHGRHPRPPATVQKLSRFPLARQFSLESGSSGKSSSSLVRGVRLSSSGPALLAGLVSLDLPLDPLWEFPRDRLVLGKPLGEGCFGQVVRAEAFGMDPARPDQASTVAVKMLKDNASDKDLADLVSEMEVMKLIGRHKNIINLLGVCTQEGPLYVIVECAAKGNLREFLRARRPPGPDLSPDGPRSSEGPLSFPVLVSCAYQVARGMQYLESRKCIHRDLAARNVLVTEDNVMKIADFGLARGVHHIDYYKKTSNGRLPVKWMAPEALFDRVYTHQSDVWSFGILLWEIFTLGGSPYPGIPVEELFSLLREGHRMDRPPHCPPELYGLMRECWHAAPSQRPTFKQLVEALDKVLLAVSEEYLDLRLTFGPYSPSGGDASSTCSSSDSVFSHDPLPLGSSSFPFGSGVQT
Chain of Casein kinase II subunit alpha (Homo sapiens) (P68400 whole entry, looked up): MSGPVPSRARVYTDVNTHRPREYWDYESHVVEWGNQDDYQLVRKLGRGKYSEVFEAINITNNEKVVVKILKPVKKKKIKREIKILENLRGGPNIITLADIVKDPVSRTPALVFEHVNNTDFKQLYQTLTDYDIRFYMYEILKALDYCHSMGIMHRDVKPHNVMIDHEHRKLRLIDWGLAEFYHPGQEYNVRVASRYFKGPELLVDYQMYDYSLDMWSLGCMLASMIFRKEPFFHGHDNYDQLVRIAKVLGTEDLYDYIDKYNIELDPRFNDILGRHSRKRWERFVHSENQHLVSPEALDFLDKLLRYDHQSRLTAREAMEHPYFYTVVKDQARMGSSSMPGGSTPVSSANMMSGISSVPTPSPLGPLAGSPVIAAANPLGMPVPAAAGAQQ
Chain of Eukaryotic elongation factor 2 kinase (Homo sapiens) (O00418 whole entry): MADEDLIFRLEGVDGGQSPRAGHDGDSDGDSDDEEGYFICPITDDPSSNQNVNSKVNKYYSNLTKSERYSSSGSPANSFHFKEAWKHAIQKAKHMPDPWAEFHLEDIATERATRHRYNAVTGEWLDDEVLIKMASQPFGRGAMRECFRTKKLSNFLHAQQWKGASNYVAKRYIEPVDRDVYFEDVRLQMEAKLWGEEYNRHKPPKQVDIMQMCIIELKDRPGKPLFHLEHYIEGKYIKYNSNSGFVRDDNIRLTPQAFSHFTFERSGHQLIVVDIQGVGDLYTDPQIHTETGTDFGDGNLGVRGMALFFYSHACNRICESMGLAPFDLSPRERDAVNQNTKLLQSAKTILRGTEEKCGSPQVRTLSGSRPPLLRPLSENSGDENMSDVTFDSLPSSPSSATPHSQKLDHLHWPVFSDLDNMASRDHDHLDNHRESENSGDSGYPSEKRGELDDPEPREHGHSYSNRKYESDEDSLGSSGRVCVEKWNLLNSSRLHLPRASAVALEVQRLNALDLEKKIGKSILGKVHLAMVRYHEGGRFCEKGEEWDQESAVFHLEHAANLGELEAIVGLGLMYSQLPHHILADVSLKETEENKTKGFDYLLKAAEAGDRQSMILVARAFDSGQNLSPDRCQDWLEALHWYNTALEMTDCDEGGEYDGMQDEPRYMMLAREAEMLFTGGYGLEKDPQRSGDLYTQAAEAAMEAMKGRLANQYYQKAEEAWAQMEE

For `Cc1nc(C2CCN(C(=O)c3ccc(OC(F)(F)F)cc3N)CC2)c2ncc(N3CCN(C)CC3)cc2n1` [BAY-693], the residual activity [1] was 92%, the IC50 [2] was 22.4 µM (not active) and the residual activity [3] was 74%.
`CN1CCN(c2cnc3c(C4CCN(C(=O)c5ccc(OC(F)(F)F)cc5N)CC4)ncnc3c2)CC1` [BAY-885] gave a % residual kinase activity [4] of 96%, a % residual kinase activity [5] of 113% and a % residual kinase activity [6] of 103%. For the same molecule, the % residual kinase activity [7] was 92%, the % residual kinase activity [8] was 104% and the % residual kinase activity [9] was 113%. The residual activity [1] was 100%, the % residual kinase activity [10] was 104% and the % residual kinase activity [11] was 122%. The IC50 [2] was > 30 µM (not active), the residual activity [3] was 77% and the % residual kinase activity [12] was 99%.
